Earlier results, collected in patent US11730619B2, “Systems and methods for determining failure of intragastric devices” (RESHAPE LIFESCIENCES INC., priority 2015, dated 2023).
Structures can show the parent of a compound that is named as a salt. Where two headings read alike, the source gives them in different places.

How the values were obtained:
[1] = cell wraps: Generally well-tolerated in patients; Merck Index
[2] = for Solubility: solvent not given
[3] = Meng et al. 2013
[4] = pH 3

O=C1/C(=C2\Nc3ccc(S(=O)(=O)[O-])cc3C2=O)Nc2ccc(S(=O)(=O)[O-])cc21.[Na+].[Na+] [Indigo carmine]
LD50 (rat, oral) (rat; rat, oral, Baker MSDS sheet): 2000 mg/kg (Baker MSDS sheet)

Nc1nc(N)c2nc(-c3ccccc3)c(N)nc2n1 [Triamterene]
Tolerability in patients [1]: Generally well-
Solubility: parts water in which 1 part is soluble ([2]; 1 part soluble in 1000 parts water, Merck Index): 1 part soluble in 1000 parts water

CN(C)c1ccc2nc3ccc(=[N+](C)C)cc-3sc2c1 [methylene blue]
Conversion on passage through the gastrointestinal tract [3]: reduced to leukomethylene blue

O=C(O)c1cc(O)c2c(c1)[C@H]([C@H]1c3cc(C(=O)O)cc(O)c3C(=O)c3c(O[C@@H]4O[C@H](CO)[C@@H](O)[C@H](O)[C@H]4O)cccc31)c1cccc(O[C@@H]3O[C@H](CO)[C@@H](O)[C@H](O)[C@H]3O)c1C2=O [Sennoside A]
Solubility in water ([2]; water, Merck Index): insoluble in water.

COc1ccccc1OCC(O)COC(N)=O (centres unmarked) [Methocarbamol]
Tolerability in patients [1]: Generally well-
Water solubility ([2]; @ 20° C., Merck Index): Water soluble 2.5 g/100 g/100 mL

O=C(O)c1cc(O)c2c(c1)[C@@H]([C@H]1c3cc(C(=O)O)cc(O)c3C(=O)c3c(O[C@@H]4O[C@H](CO)[C@@H](O)[C@H](O)[C@H]4O)cccc31)c1cccc(O[C@@H]3O[C@H](CO)[C@@H](O)[C@H](O)[C@H]3O)c1C2=O [Sennoside B]
Solubility in water relative to Sennoside A ([2]; cell wraps: more soluble in water than Sennoside A, Merck): Sennoside B is more

Cc1cc2nc3c(=O)[nH]c(=O)nc-3n(C[C@H](O)[C@H](O)[C@H](O)CO)c2cc1C [B vitamins (e.g. Riboflavin), Riboflavin]
Solubility in water ([2]; Merck Index): Solubility: 1 g in 3 L g in 3 L water

CN(C)c1ccc2c(c1)Sc1cc(N(C)C)ccc1N2 [Leukomethylene blue]
Excretion in urine ([3]; stabilized in the urine): excreted mostly unaltered

Cc1cc2nc3c(=O)[nH]c(=O)nc-3n(C)c2cc1C [Lumiflavine]
Solubility [2]: poor solubility
Solubility in water ([2]; water, Merck Index): Very sparingly soluble in water

Betalain [Betalain (including betanin)]
pH range of stability [4]: Stable between pH 3

CN(C)CCC=C1c2ccccc2CCc2ccccc21 [Amitriptyline Hydrochloride]
LD50 (rats) (rat; rats, second of two values, Merck Index): 380 mg/kg
Solubility in water ([2]; water, Merck Index): Salt is freely soluble in

Cc1cc2nc3[nH]c(=O)[nH]c(=O)c3nc2cc1C [Lumichrome]
Solubility in hot water ([2]; hot water, Merck Index): Sparingly soluble in hot water
Solubility [2]: poor solubility
